US6733985B1, “Preparation of stable liquid and dried synthetic prothrombin time reagents” (International Technidyne Corporation, priority 1999, dated 2004)
Where a SMILES comes first, the peptide text is derived from it.

B1: recombinant tissue factor: recombinant tissue factor based PT reagent, named in b17 as comparison for sensitivity (protein, UniProt P13726 33-295, looked up)
Tissue factor: SGTTNTVAAYNLTWKSTNFKTILEWEPKPVNQVYTVQISTKSGDWKSKCFYTTDTECDLTDEIVKDVKQTYLARVFSYPAGNVESTGSAGEPLYENSPEFTPYLETNLGQPTIQSFEQVGTKVNVTVEDERTLVRRNNTFLSLRDVFGKDLIYTLYYWKSSSSGKKTAKTNTNEFLIDVDKGENYCFSVQAVIPSRTVNRKSTDSPVECMGQEKGEFREIFYIIGAVVFVVIILVIILAISLHKCRKAGVGQSWKENSPLNVS
modifications: PT reagent
notes: recombinant tissue factor based PT reagent, named in b17 as comparison for sensitivity

What was measured:
[1] = tested on: Level I (normal control) and Level III (abnormal control) control plasma; experiment: traditional prothrombin time test method using a Fibrometer; conditions: amino acid stabilizer compound formulated into PT reagent (summary of Examples 1 to 13)
Procedure: The concentration of the dissolved phospholipids was 12.76 mM. […] Additional bovine serum albumin was added to a concentration of 4.8 mg/ml. […] The dialyzed lipidated tissue factor, was then drained from the dialysis bag. […] The formulated material was frozen at −70° C., and then thawed. The thawed formulated material was incubated at 25 and 37° C. for 4 weeks, The reagent was taken out from the incubation at weekly intervals and subjected to coagulation assay by traditional prothrombin time test method using a Fibrometer. The control plasma samples used for the assay were Level I (normal control) and Level III (abnormal control) of Ortho Diagnostics Corporation. […] The Level III abnormal control plasma contains a reduced amount of coagulation factors representing the plasma of patients.

[2] = tested on: Control Level I or Level III plasma samples; experiment: clotting assay of air-dried reagent in cuvets for Protime instrument; assay type: biochemical; conditions: Example 11 lipidated tissue factor in 14 mM Hepes, 4% sorbitol, 1% β-alanine, with 1% polymeric carbohydrate or none
Procedure: The formulated material was air-dried at 20° C. and 5% relative humidity in cuvets for Protime instrument (a product of International Technidyne Corporation, Edison, N.J.). The produced cuvets with reagent were incubated at 25, 37 and 45° C. for stability studies. At given time intervals, the cuvets were taken out of the incubators and assayed for their clotting activities. Freshly withdrawn blood, Control Level I or Level III plasma samples were added to the cuvets with the dried reagent for assay. Calcium chloride, 8.3 mM, was added to the control plasmas and loaded on the cuvet immediately for assay. In this assay system, reconstitution of the dried reagent is done with plasma or blood, without using water, which is different from Fibrometer assay system. Thence, the kinetics involved in these two systems are different, as well as the clotting times. Whole blood contains a considerable amount of red blood cells and other blood components and its clotting activity is different from that of plasma. For comparison, the clotting time with freshly withdrawn whole blood at day zero was 22.8 seconds.
As shown in the results, γ-Cyclodextrin is a useful homogeneous polymeric carbohydrate to adjust the sensitivity of the synthetic PT reagent.

[3] = tested on: Level III and Level I plasma; conditions: prior art comparison; cited from earlier work

Row | Molecule | Level III/I ratio test results [1] | also measured
1 | N=C(N)NCCC[C@H](N)C(=O)O [Arginine] | Unsatis- | 
2 | N[C@@H](CC(=O)O)C(=O)O [Aspartic acid] | Unsatis- | 
3 | NCCC(=O)O [Beta alanine] | Satisfac- | 
4 | NCCCCC(=O)O [Delta aminovaleric acid] | Satisfac- | 
5 | NCCCC(=O)O [Gamma aminobutyric acid] | Satisfac- | 
6 | NCC(=O)NCC(=O)O [Glycylglycine] (H-Gly-Gly-OH) | Unsatis- | 
7 | OC[C@H]1O[C@@H]2O[C@H]3[C@H](O)[C@@H](O)[C@@H](O[C@H]4[C@H](O)[C@@H](O)[C@@H](O[C@H]5[C@H](O)[C@@H](O)[C@@H](O[C@H]6[C@H](O)[C@@H](O)[C@@H](O[C@H]7[C@H](O)[C@@H](O)[C@@H](O[C@H]8[C@H](O)[C@@H](O)[C@@H](O[C@H]9[C@H](O)[C@@H](O)[C@@H](O[C@H]1[C@H](O)[C@H]2O)O[C@@H]9CO)O[C@@H]8CO)O[C@@H]7CO)O[C@@H]6CO)O[C@@H]5CO)O[C@@H]4CO)O[C@@H]3CO [γ-Cyclodextrin] |  | Clotting Times, Level I [2]: 17.6 s; Clotting Times, Level III [2]: 81.8 s; III/I Ratio [2]: 4.7
8 | NCCCCCC(=O)O [ε-aminocaproic acid] | Unsatis- | 
9 | B1 |  | Level III/I sensitivity [3]: 4.0
